Assay results taken from US11555009B2, “2-(substituted benzene matrix) aromatic formate FTO inhibitor, preparation method therefor, and applications thereof” (SHANGHAI INSTITUTE OF MATERIA MEDICA, CHINESE ACADEMY OF …, priority 2017, dated 2023).

Tests used:
FTO = FTO (Homo sapiens (Human), UniProt Q9C0B1); assay: FTO enzyme inhibition (m6A dsDNA substrate, DpnII digestion, gel readout); format: biochemical; settings: for inhibition at 50 µM: read-out: Inhibition rate; for Inhibition rate: in vitro inhibition rate on FTO, compound at 50 μM
Chain of FTO (Q9C0B1 whole entry): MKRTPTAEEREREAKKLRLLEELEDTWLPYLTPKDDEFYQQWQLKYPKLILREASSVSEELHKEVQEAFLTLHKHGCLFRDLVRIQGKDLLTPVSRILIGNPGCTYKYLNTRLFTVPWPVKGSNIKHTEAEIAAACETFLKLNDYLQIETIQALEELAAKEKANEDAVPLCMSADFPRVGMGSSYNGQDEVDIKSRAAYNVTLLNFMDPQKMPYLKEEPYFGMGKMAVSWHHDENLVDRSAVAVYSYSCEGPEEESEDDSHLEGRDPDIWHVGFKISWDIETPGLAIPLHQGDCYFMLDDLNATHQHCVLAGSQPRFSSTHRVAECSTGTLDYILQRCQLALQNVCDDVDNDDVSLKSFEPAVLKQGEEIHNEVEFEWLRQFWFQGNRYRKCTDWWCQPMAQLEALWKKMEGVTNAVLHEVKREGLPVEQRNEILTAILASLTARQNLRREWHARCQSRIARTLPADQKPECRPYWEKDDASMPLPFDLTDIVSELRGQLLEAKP
Method: High purity FTO protein was obtained by nickel column affinity chromatography purification.
After incubation at room temperature for 2 hrs, the reaction system was then slowly heated to 65° C. to inactivate, and 1 μM 39 nt of antisense strand DNA was added to anneal, thereby forming double strands. […] After Gel-Red dyeing, photos were taken with gel imaging system. The obtained band was subjected to gray scale reading to obtain inhibition rate.

[1] = test system: human small cell lung cancer cell lines (SCLC-21H); assay: MTS cytotoxicity on SCLC-21H cells; format: cell-based; settings: for inhibition at 50 µM: Homo sapiens, SCLC-21H, read-out: Inhibition rate (human small cell lung cancer SCLC-21H); for inhibition at 50 µM / Inhibition rate (human small cell lung cancer SCLC-21H): 72 h, 50 μM; for IC50: read-out: Cytotoxicity on cell line SCLC (IC50)
Method: (§1) The following was a study of the cytotoxicity study of compound of 2-(substituted phenylhetero)aromatic formic acid of formula (I) and its derivatives as FTO inhibitors on solid tumors including human small cell lung cancer cell lines (SCLC-21H), human bone marrow rhabdomyosarcoma cell line (RH30) and pancreatic cancer cell Line (KP3):
(§2) SCLC-21H, RH30 and KP3 solid tumor cell lines were cultivated separately, and seeded at 5000 cells per well in 96 well plates. The cells were cultured until the cells were adherent, and different compounds were added and the cultivation was continued for 72 hours. 10 uL of MTS solution was directly added and the mixture was incubated for 4 h, and the absorbance was measured at 490 nm. The inhibition rate was calculated by using the DMSO group as a control.

[2] = test system: human bone marrow rhabdomyosarcoma cell line (RH30); assay: MTS cytotoxicity on RH30 cells; format: cell-based; settings: for inhibition at 50 µM: Homo sapiens, Rh30, read-out: Inhibition rate (human bone marrow rhabdomyosarcoma cell RH30); for inhibition at 50 µM / Inhibition rate (human bone marrow rhabdomyosarcoma cell RH30): 72 h, 50 μM
Method: as §1, §2

[3] = test system: pancreatic cancer cell Line (KP3); assay: MTS cytotoxicity on KP3 cells; format: cell-based
Method: as §1, §2

| Inhibition rate (FTO) [%] | Compound | Inhibition rate (human small cell lung cancer SCLC-21H) [1] [%] | Inhibition rate (human bone marrow rhabdomyosarcoma cell RH30) [2] [%] | other results |
| --- | --- | --- | --- | --- |
| – | CCCOCCOC(=O)c1ccccc1Nc1c(Cl)cc(-c2c(C)noc2C)cc1Cl [Compound 85] | – | – | inhibition at 50 µM (FTO): 30% |
| – | O=C(O)c1ccccc1Nc1c(Cl)cc(-c2cc(O)cc(O)c2)cc1Cl [Compound 1] | – | – | IC50 (FTO): 0.7 µM; inhibition at 50 µM (FTO): 85% |
| 45 | O=C(O)c1ccccc1Nc1c(Cl)cc(C2CCNCC2)cc1Cl [Compound 56] | – | – | – |
| – | Cc1noc(C)c1-c1cc(Cl)c(Nc2ccccc2C(=O)O)c(Cl)c1 [Compound 15, 2-((2,6-dichloro-4-(3,5-dimethylisoxazole)phenyl)amino)benzoic acid] | – | – | inhibition at 50 µM [1]: 43%; inhibition at 50 µM [2]: 49% |
| 100 | Cc1noc(C)c1-c1cc(O)c(Nc2ccccc2C(=O)O)c(O)c1 [Compound 40] | – | – | – |
| 100 | O=C(O)c1cccnc1Nc1c(Cl)cc(-c2ccoc2)cc1Cl [Compound 59] | 28 | 57 | – |
| – | Cc1noc(C)c1-c1cc(Cl)c(Nc2ccccc2-c2noc(=O)[nH]2)c(Cl)c1 [Compound 27] | 14 | 50 | IC50 (FTO): < 1 µM |
| – | CCN(CC)CCNC(=O)c1cccnc1Nc1c(Cl)cc(-c2c(C)noc2C)cc1Cl [Compound 78] | – | – | IC50 [1]: 5.1 µM; IC50 [2]: 14.7 µM; IC50 [3]: 8.7 µM |
| – | O=C(O)c1nccnc1Nc1c(Cl)cc(-c2ccoc2)cc1Cl [Compound 68] | 68 | 56 | – |
| – | CCN(CC)CCNC(=O)c1ccccc1Nc1c(Cl)cc(-c2c(C)noc2C)cc1Cl [Compound 79] | 80 | 79 | IC50 [1]: < 1 µM; IC50 [2]: 2.6 µM; IC50 [3]: 2.6 µM |
| 88 | Cc1noc(C)c1-c1cc(Cl)c(Nc2nccnc2C(=O)O)c(Cl)c1 [Compound 65] | 52 | 42 | – |
| – | Cc1noc(C)c1-c1cc(Cl)c(Nc2ccccc2C(=O)OCOC(=O)C(C)(C)C)c(Cl)c1 [Compound 87] | – | – | inhibition at 50 µM [1]: 26%; inhibition at 50 µM [2]: 28%; inhibition at 50 µM (FTO): 31% |
| 84 | O=C(O)c1cc(F)ccc1Nc1c(Cl)cc(-c2cn[nH]c2)cc1Cl [Compound 73] | – | – | – |
| – | O=C(O)c1cccnc1Nc1c(Cl)cc(-c2ccccc2)cc1Cl [Compound 60] | 71 | 72 | – |
| 68 | O=C(NO)c1nccnc1Nc1c(Cl)cc(-c2cn[nH]c2)cc1Cl [Compound 64] | 24 | 30 | – |
| – | Cc1cc(-c2c(C)noc2C)c(C)cc1Nc1ccccc1C(=O)O [Compound 48] | 63 | 51 | – |
| – | CCN(CC)CCOC(=O)c1ccccc1Nc1c(Cl)cc(-c2c(C)noc2C)cc1Cl [Compound 86] | – | – | inhibition at 50 µM (FTO): 31% |
| – | COc1cc(OC)cc(-c2cc(Cl)c(Nc3ncccc3C(=O)O)c(Cl)c2)c1 [Compound 61] | 44 | 52 | – |
| 79 | COc1cc(-c2cc[nH]n2)cc(OC)c1Nc1ccccc1C(=O)O [Compound 42] | 33 | 33 | – |
| – | O=C(O)c1nccnc1Nc1c(Cl)cc(-c2ccncc2)cc1Cl [Compound 66] | 48 | 53 | – |
| 35 | Cc1noc(C)c1-c1cc(Cl)c(Nc2ncccc2C(=O)NO)c(Cl)c1 [Compound 63] | 70 | 68 | – |
| – | COc1cc(-c2c(C)noc2C)cc(OC)c1Nc1ccccc1C(=O)O [Compound 43] | 44 | 25 | – |
| – | COc1cc(-c2cn[nH]c2)cc(OC)c1Nc1ccccc1C(=O)O [Compound 41] | 35 | 28 | – |
| 70 | O=C(O)c1cc(F)ccc1Nc1c(Cl)cc(-c2cncnc2)cc1Cl [Compound 71] | – | – | – |
| 28 | O=C(NO)c1cccnc1Nc1c(Cl)cc(-c2ccncc2)cc1Cl [Compound 62] | 84 | 87 | – |

| Inhibition rate (FTO) [%] | Compound | Inhibition rate (human small cell lung cancer SCLC-21H) [1] [%] | Inhibition rate (human bone marrow rhabdomyosarcoma cell RH30) [2] [%] | other results |
| --- | --- | --- | --- | --- |
| – | Cc1noc(C)c1-c1cc(Cl)c(Nc2ccccc2C(=O)OCc2oc(=O)oc2C)c(Cl)c1 [Compound 88] | – | – | inhibition at 50 µM (FTO): 34% |
| 100 | Cc1cc(-c2ccncc2)cc(C)c1Nc1ccccc1C(=O)O [Compound 46] | 66 | 41 | – |
| – | O=C(O)c1ccccc1Nc1c(Cl)cc(-c2ccn[nH]2)cc1Cl [Compound 2] | – | – | IC50 (FTO): < 5 µM; inhibition at 50 µM (FTO): 80% |
| 28 | O=C(O)c1ccccc1Nc1c(F)cc(-c2cn[nH]c2)cc1F [Compound 36] | – | – | – |
| – | O=C(O)c1cc(F)ccc1Nc1c(Cl)cc(-c2ccc(F)cc2)cc1Cl [Compound 72] | 64 | 37 | – |
| – | Cc1noc(C)c1-c1cc(Cl)c(Nc2ccccc2C(=O)O)c(Cl)c1 [Compound 30] | 33 | 32 | – |
| – | Cc1noc(C)c1-c1cc(Cl)c(Nc2ccc(F)cc2C(=O)O)c(Cl)c1 [Compound 69] | 50 | 29 | – |
| 90 | O=C(O)c1ccccc1Nc1ccc(-c2ccncc2)cc1O [Compound 52] | – | – | – |
| 31 | O=C(O)c1ccccc1Nc1c(F)cc(-c2ccncc2)cc1F [Compound 37] | 60 | 21 | – |
| – | C#CCOC(=O)c1ccccc1Nc1c(Cl)cc(-c2c(C)noc2C)cc1Cl [Compound 84] | – | – | inhibition at 50 µM (FTO): 34% |
| – | Cc1noc(C)c1-c1cc(Cl)c(Nc2ccccc2C(=O)O)c(Cl)c1 [Compound 28] | 32 | 21 | – |
| 81 | O=C(O)c1cc(F)ccc1Nc1c(Cl)cc(-c2ccncc2)cc1Cl [Compound 70] | 46 | 42 | – |
| – | Cc1n[nH]c(C)c1-c1cc(Cl)c(Nc2ccccc2C(=O)O)c(Cl)c1 [Compound 17] | – | – | inhibition at 50 µM [1]: 25%; inhibition at 50 µM [2]: 39% |
| – | O=C(O)c1ccccc1Nc1c(Cl)cc(-c2ccncc2)cc1Cl [Compound 5] | – | – | inhibition at 50 µM [1]: 55%; inhibition at 50 µM [2]: 29%; IC50 (FTO): < 5 µM |
| – | Cc1n[nH]cc1-c1cc(Cl)c(Nc2nccnc2C(=O)O)c(Cl)c1 [Compound 67] | 33 | 41 | – |
| 75 | Cc1noc(C)c1-c1cc(Cl)c(Nc2ccc([N+](=O)[O-])cc2C(=O)O)c(Cl)c1 [Compound 74] | 38 | 32 | – |
| – | O=C(O)c1ccc(-c2cc(Cl)c(Nc3ccccc3C(=O)O)c(Cl)c2)s1 [Compound 10] | – | – | IC50 (FTO): < 1 µM |
| 100 | Cc1n[nH]cc1-c1cc(Cl)c(Nc2ncccc2C(=O)O)c(Cl)c1 [Compound 57] | 47 | 40 | – |
| 100 | O=C(O)c1ccccc1Nc1cc(F)c(-c2ccncc2)c(F)c1 [Compound 49] | 20 | 51 | – |
| 58 | Cc1noc(C)c1-c1cc(Cl)c(Nc2ccc(N)cc2C(=O)O)c(Cl)c1 [Compound 75] | 60 | 51 | – |
| 100 | Cc1cc(-c2c(C)noc2C)cc(C)c1Nc1ccccc1C(=O)O [Compound 44] | 47 | 24 | – |
| – | CCN(CC)CCNC(=O)c1ccccc1Nc1c(Cl)cc(-c2cc(F)cc(F)c2)cc1Cl [Compound 83] | – | – | IC50 [2]: 4.7 µM; IC50 [3]: 4.7 µM |
| – | Cc1noc(C)c1-c1cc(Cl)c(Nc2ccccc2C(=O)O)c(Cl)c1 [Compound 29] | 46 | 47 | – |
| – | Cc1noc(C)c1-c1cc(Cl)c(Nc2ccccc2-c2nn[nH]n2)c(Cl)c1 [Compound 26] | 17 | 36 | – |
| 100 | O=C(O)c1ccccc1Nc1c(Cl)cc(N2CCOCC2)cc1Cl [Compound 55] | – | – | IC50 (FTO): < 5 µM |
